“Also recorded” adds a separate entry of the source. Ends that are not written are not given here.
Legend:
[1] = test system: G1 Fab binding to human α-CGRP on the chip; experiment: Epitope mapping of antibody G1 by peptide competition using Biacore; conditions: for percentage of binding of G1 Fab to human α-CGRP blocked by competing peptide: 10 uM peptide in 50 nM G1 Fab (2000:1 mol peptide/Fab), FIG. 6
From the text: N-biotinylated human α-CGRP was captured on SA sensor chip. […] Y axis represents percentage of binding blocked by the presence of the competing peptide compared with the binding in the absence of the competing peptide.
Human α-CGRP was purchased as an N-biotinylated version to enable its high-affinity capture via SA sensor chips. […] All these peptides are amidated at the C-terminus.

[2] = test system: CRTC1 shuttling in DRG neurons; experiment: CRTC1 nuclear shuttling in dissociated DRG neuronal cultures (immunostaining); type: cell-based, mouse
MIN6 cells = experiment: Insulin secretion assay of mouse insulinoma cells (MIN6) upon glucose stimulation; type: cell-based; conditions: 16.8 mM glucose; for effect on glucose-stimulated insulin release: 100 nM to 500 nM peptide, FIGS. 15A-C, 16A
Method: FIGS. 15A-15C: Insulin secretion assay of mouse insulinoma cells (MIN6) upon 16.8 mM glucose stimulation.
FIGS. 16A-16C illustrate insulin secretion and inflammation of the TRPV1 mutant mice. FIG. 16A: Insulin secretion assay of mouse insulinoma cells (MIN6) upon 16.8 mM glucose stimulation with 0.1-0.5 μM synthetic human CGRPα. FIG. 16B: Insulin secretion assay (MIN6) upon 16.8 mM glucose and exendin 4 stimulation.
MIN6 insulinoma cells were obtained at passage 18 from Ulupi Jhala (UCSD, La Jolla, Calif.) and were cultured in DMEM (Life technologies) containing 11 mM glucose, 10% FBS, Glutamax (Invitrogen) and 10 μM β-mercapthoethanol as previously described (Huising et al., Proc. Natl. Acad. Sci. 107:912-917, 2010). Glucose stimulation was performed at low (2.8 mM) and high (16.8 mM). Treatments were diluted in Krebs-Ringer bicarbonate buffer with 2.8 mM glucose.
To mimic pancreatic β-cell glucose mediated insulin release, mouse insulinoma MIN6 cells were used (Huising et al., Proc. Natl. Acad. Sci. 107:912-917, 2010).

[3] = Indirect calorimetry (RER, oxygen consumption) of old wild-type mice treated with CGRP8-37 by osmotic pump; type: in vivo, mouse; conditions: old (22-23 months) male WT C57BL/6J mice, osmotic pumps, 5.5 mg/mL, after 6 weeks of treatment
Method: FIGS. 15A-15C: Insulin secretion assay of mouse insulinoma cells (MIN6) upon 16.8 mM glucose stimulation. Cells were incubated with 0.1-0.5 μM synthetic peptides for FIG. 15A: rat CGRPα, FIG. 15B: rat CGRPβ and FIG. 15C: rat Substance P, n=4, means±S.E.M, **p<0.01, *p<0.05, Student's t test. FIG. 15D: Serum levels of CGRP measured by ELISA in blood samples from WT and TRPV1 mutants at 3 and 24 months, n=7, means±S.E.M. a, ns and b, p<0.05. FIG. 15E: Respiratory exchange ratio (RER) analysis and oxygen consumption FIG. 15F: of 23 months old male WT animals treated with CGRP8-37 or vehicle control, n=10, means±S.E.M.,**p<0.01, *p<0.05, Student's t test.
Indirect calorimetric studies were conducted in a Comprehensive Lab Animal Monitoring System (Columbus Instruments). For GTT and GSIS, glucose (2 g/kg weight) was intraperitoneally administered and blood glucose was measured from tail bleeds at indicated times after injection using a One Touch Ultra glucometer (LifeScan). For the ITT, 5 hour fasted mice were injected with 1 u/kg of human insulin (Humulin; Eli Lily) and glucose was measured as in the GTT. […] Serum insulin was measured using an UltraSensitive Insulin ELISA kit (Crystal Chem). Serum levels of fasted leptin, adiponectin were measured using Quantikine ELISA Kits (R&D systems). […] CGRP was measured using ELISA (EIAab). […]

Sequence of G1 Fab binding to human α-CGRP on the chip (as listed by the source): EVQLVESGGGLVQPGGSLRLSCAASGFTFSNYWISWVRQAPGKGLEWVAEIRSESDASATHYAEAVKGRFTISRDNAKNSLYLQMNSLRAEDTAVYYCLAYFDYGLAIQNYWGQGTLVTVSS
Sequence of G1 Fab binding to human α-CGRP on the chip (as listed by the source): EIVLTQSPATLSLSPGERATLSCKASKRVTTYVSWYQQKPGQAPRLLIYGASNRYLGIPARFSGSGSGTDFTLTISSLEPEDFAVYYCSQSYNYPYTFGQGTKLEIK

For “K35M (19-37): human α-CGRP mutant fragment, SEQ ID NO: 21, SGGVVKNNFVPTNVGSMAF, C-terminally amidated (SGGVVKNNFVPTNVGSMAF-NH2; listed as Homo sapiens)”, the “percentage of binding of G1 Fab to human α-CGRP blocked by competing peptide” value (from here on “percentage of binding of G1 Fab”) [1] was 100%.

For “26-37: human α-CGRP fragment 26-37, SEQ ID NO: 35, NFVPTNVGSKAF, C-terminally amidated [Clone 26-37]”, the “percentage of binding of G1 Fab” value [1] was 100%.

With `COc1cccc(NC(=O)/C=C/c2ccc(Cl)cc2)c1` [SB-366791] the “CRTC1 nuclear localization after blockade of TRPV1” value ([2]; WT DRG neurons, pretreatment prior to stimulation with FSK and Cap, 10 μM or 2 μM, FIG. 14D) was “robust nuclear exclusion of CRTC1”.

For “K35A (19-37): human α-CGRP mutant fragment, SEQ ID NO: 19, SGGVVKNNFVPTNVGSAAF, C-terminally amidated (SGGVVKNNFVPTNVGSAAF-NH2; listed as Homo sapiens)”, the “percentage of binding of G1 Fab” value [1] was 100%.

For “1-37 of β-CGRP (WT): human β-CGRP 1-37, SEQ ID NO: 43, ACNTATCVTHRLAGLLSRSGGMVKSNFVPTNVGSKAF, C-terminally amidated”, the “percentage of binding of G1 Fab” value [1] was 100%.

With “G1: humanized IgG2 monoclonal anti-CGRP antagonist antibody; VH SEQ ID NO: 1, VL SEQ ID NO: 2; ATCC PTA-6867 and PTA-6866 [Clone G1]” the “epitope on human α-CGRP that is recognized by antibody G1” value ([1]; Biacore peptide competition and variant affinities) was “targets a C-terminal epitope of CGRP; also recorded: binds to a C-terminal epitope with F37 and G33 being the most important residues; also recorded: on the C-terminal end of human α-CGRP”.

For “8-37: human α-CGRP fragment 8-37, SEQ ID NO: 16, VTHRLAGLLSRSGGVVKNNFVPTNVGSKAF, C-terminally amidated [Clone 8-37]”, the “percentage of binding of G1 Fab” value [1] was 100%.

In the case of “rat α-CGRP: rat α-CGRP 1-37, SEQ ID NO: 41, SCNTATCVTHRLAGLLSRSGGVVKDNFVPTNVGSEAF”, the “percentage of binding of G1 Fab” value [1] is reported as 100%, the “reduction of insulin release, % of the maximum insulin response” value (MIN6 cells; 100 nM peptide) is reported as 46% and the “effect on glucose-stimulated insulin release” value (from here on “effect”) (MIN6 cells) is reported as “insulin release was greatly blunted”.

For “substance P (RPKPQQFFGLM-NH2; ends and bridges not checked; UniProt P06767 58-68, looked up) [TRPV1 secreted neuropeptide; synthetic rat peptide]”, the “effect” value (MIN6 cells) was “did not alter insulin secretion”.

With “rat β-CGRP: rat β-CGRP 1-37, SEQ ID NO: 44, SCNTATCVTHRLAGLLSRSGGVVKDNFVPTNVGSKAF” the “percentage of binding of G1 Fab” value [1] was 100%, the “effect” value (MIN6 cells) was “insulin release was greatly blunted” and the “reduction of insulin release, % of the maximum insulin response” value (MIN6 cells; 500 nM peptide) was 58%.

For “P29A (19-37): human α-CGRP mutant fragment, SEQ ID NO: 18, SGGVVKNNFVATNVGSKAF, C-terminally amidated (SGGVVKNNFVATNVGSKAF-NH2; listed as Homo sapiens)”, the “percentage of binding of G1 Fab” value [1] was 100%.

With “K35E (19-37): human α-CGRP mutant fragment, SEQ ID NO: 20, SGGVVKNNFVPTNVGSEAF, C-terminally amidated (SGGVVKNNFVPTNVGSEAF-NH2; listed as Homo sapiens)” the “percentage of binding of G1 Fab” value [1] was 100%.

In the case of `COc1cc(CNC(=O)CCCC/C=C/C(C)C)ccc1O` [Cap, capsaicin], the CRTC1 nuclear localization [2] is reported as “accumulation of CRTC1 in the nuclei of TRPV1-positive cells” and the “Cap-induced CRTC1 shuttling” value ([2]; TRPV1 mutant DRG neurons, Cap 1 μM, FIG. 14C) is reported as “abolished”.

For `NC1=N[C@H](O)[C@H]2[C@H]3O[C@]4(O)O[C@@H]([C@@H](O)[C@@]2(N1)[C@@H]4O)[C@]3(O)CO` [TTX, Tetrodotoxin], the “distribution of CRTC1” value [2] was “remained mostly cytoplasmic”.

In the case of “CGRP 8-37: positive control compound (vasodilatation antagonist); CGRP receptor antagonist (Tocris Bioscience) (VTHRLAGLLSRSGGVVKNNFVPTNVGSKAF-NH2; UniProt P06881 90-119, looked up, fragment)”, the oxygen consumption ([3]; vs controls) is reported as “increased” and the “respiratory exchange ratio (RER), metabolic circadian shift from night to day” value ([3]; vs vehicle) is reported as “reappearance of a more youthful metabolic circadian shift from night to day”.

Source: patent US20170037117A1, “COMPOSITIONS AND METHODS FOR TREATING METABOLIC DISORDERS” (Salk Institute for Biological Studies, priority 2014, published 2017)
